According to patent US4859611A (priority 1986, dated 1989):

Experiments:
[1] = tested on: IgM antibody affinity matrix; format: binding, mouse
many animal species = conditions: in vivo; cited from earlier work

What does the source list for COc1cc2c(c3oc(=O)c4c(c13)CCC4=O)[C@@H]1C=CO[C@@H]1O2 [AFB1, aflatoxin B1]?
capacity of affinity matrix to bind AFB1 [1]: 1.0 to 1.3 µg; toxic, mutagenic and carcinogenic effect (many animal species): toxic, mutagenic and carcinogenic
